Assay results: EP1066315B1 (University of Dundee, priority 1998, dated 2008)
Entries after “also recorded” stand apart in the source; their conditions may differ. Residues, ends and D or L forms follow the SMILES beside them. *: point of attachment. Fmoc = O=C(OCC1c2ccccc2-c2ccccc21)*

What was measured:
[1] = test system: purified AEP (legumain from pig kidney); assay: Digestion of TTCF with purified AEP in the presence of tetrapeptides; assay type: biochemical; conditions: 0.2 mg/ml peptide; Fig 3a
Method: The invention will now be described by reference to the following Examples and Figures wherein • Figure 1: Processing of TTCF by a leupeptin-insensitive cysteine endopeptidase activity. (a) TTCF was digested in vitro in the presence of disrupted lysosomes (1-2 µg) in the presence or absence of iodoacetamide (1 mM), leupeptin, E64 or pepstatin (each at 0.1 mg/ml). Digestions were in 0.1 M NH4 acetate at pH 4.5 or Na2HPO4, pH 6.0 or 7.0. After 4 hours at 37°C, the reactions were separated by Tris-tricine SDS-PAGE and stained with Coomassie Blue. (b) Cleavage sites: TTCF digestion products were separated by SDS PAGE and electrophoretically transferred to nitrocellulose membrane. Individual fragments numbered 1-6 were subjected to 5 cycles of Edman degradation. N-terminal sequence obtained is shown in bold following upstream residues from TTCF (tetanus toxin numbering). The N-terminal sequence of His-tagged TTCF was obtained for fragments 1 and 3. (c) Residues Asn 1184 and Glu 1184 in TTCF were mutated to alanine (see Methods) and digestions performed as before. The mutation abolishes cleavage at the mutated site but not at the first site (doublet at 47 kD). In this experiment cleavage of the third site was minimal. • Figure 2: TTCF is processed by an asparaginyl endopeptidase. (a) Chromatography of the TTCF processing activity on Mono-S resin. Fractions eluted by NaCl gradient were incubated with the substrates Z-Ala-Ala-Asn-NHMec or Z-Phe-Arg-NHMec in the presence or absence of E64 (trans-epoxysuccinyl-L-leucylamido-(4-guanidino)butane). […] (b) Fractions as above were incubated with 10 µg TTCF in the presence or absence of E64 for 4 hours at 37°C prior to SDS-PAGE analysis. (c) Each fraction was analysed by SDS-PAGE and Western blotting. Electrophoretically transferred material was probed with an affinity purified antiserum raised against the peptide KGIGSGKVLKSGPQC from human legumain^1. • Figure 3: Peptide inhibitors of AEP block asparaginyl endopeptidase activity and TTCF processing in vitro and in vivo. […] Release of 7-amino-4-methyl coumarin was measured after 10, 20 or 30 minutes. […] At different times the cells were washed, fixed in 0.05 % glutaraldehyde and antigen presentation measured using proliferation of different autologous TTCF-specific T cell clones. c, AEP pre-processing of TTCF speeds antigen presentation. […] Presentation was measured after 60 minutes of antigen pulsing using EBV B cells.
We decided to test the possibility that high concentrations of asparagine containing peptides might act as competitive inhibitors. […] To establish that inhibition of AEP was specific, we measured the hydrolysis of different synthetic peptide substrates in the presence and absence of these tetrapeptides.

[2] = test system: EBV-transformed B cells / autologous TTCF-specific T cell clones; assay: TTCF antigen presentation by EBV-transformed B cells, read out as proliferation of autologous T cell clones; assay type: cell-based, human
Method: (§1) The invention will now be described by reference to the following Examples and Figures wherein • Figure 1: Processing of TTCF by a leupeptin-insensitive cysteine endopeptidase activity. (a) TTCF was digested in vitro in the presence of disrupted lysosomes (1-2 µg) in the presence or absence of iodoacetamide (1 mM), leupeptin, E64 or pepstatin (each at 0.1 mg/ml). Digestions were in 0.1 M NH4 acetate at pH 4.5 or Na2HPO4, pH 6.0 or 7.0. After 4 hours at 37°C, the reactions were separated by Tris-tricine SDS-PAGE and stained with Coomassie Blue. (b) Cleavage sites: TTCF digestion products were separated by SDS PAGE and electrophoretically transferred to nitrocellulose membrane. Individual fragments numbered 1-6 were subjected to 5 cycles of Edman degradation. N-terminal sequence obtained is shown in bold following upstream residues from TTCF (tetanus toxin numbering). The N-terminal sequence of His-tagged TTCF was obtained for fragments 1 and 3. (c) Residues Asn 1184 and Glu 1184 in TTCF were mutated to alanine (see Methods) and digestions performed as before. The mutation abolishes cleavage at the mutated site but not at the first site (doublet at 47 kD). In this experiment cleavage of the third site was minimal. • Figure 2: TTCF is processed by an asparaginyl endopeptidase. (a) Chromatography of the TTCF processing activity on Mono-S resin. Fractions eluted by NaCl gradient were incubated with the substrates Z-Ala-Ala-Asn-NHMec or Z-Phe-Arg-NHMec in the presence or absence of E64 (trans-epoxysuccinyl-L-leucylamido-(4-guanidino)butane). […] (c) Each fraction was analysed by SDS-PAGE and Western blotting. […] Release of 7-amino-4-methyl coumarin was measured after 10, 20 or 30 minutes. […] At different times the cells were washed, fixed in 0.05 % glutaraldehyde and antigen presentation measured using proliferation of different autologous TTCF-specific T cell clones. c, AEP pre-processing of TTCF speeds antigen presentation. […] Presentation was measured after 60 minutes of antigen pulsing using EBV B cells. […]

[3] = test system: cathepsin L/B; assay: Hydrolysis of cathepsin L/B substrate Z-Phe-Arg-NHMec by B cell lysosomal fractions; assay type: biochemical, human; conditions: Fig 3b
Method: as §1, with “numbering).” for “numbering). The N-terminal sequence of His-tagged TTCF was obtained for fragments 1 and 3. (c) Residues Asn 1184 and Glu 1184 in TTCF were mutated to alanine (see Methods) and digestions performed as before. The mutation abolishes cleavage at the mutated site but not at the first site (doublet at 47 kD). In this experiment cleavage of the third site was minimal. • Figure 2: TTCF is processed by an asparaginyl endopeptidase. (a) Chromatography of the TTCF processing activity on Mono-S resin. Fractions eluted by NaCl gradient were incubated with the substrates Z-Ala-Ala-Asn-NHMec or Z-Phe-Arg-NHMec in the presence or absence of E64 (trans-epoxysuccinyl-L-leucylamido-(4-guanidino)butane).”

C[C@H](NC(=O)OCC1c2ccccc2-c2ccccc21)C(=O)N[C@@H](CCC(=O)O)C(=O)N[C@@H](CC(N)=O)C(=O)N[C@@H](CCCCN)C(N)=O [AENK, Ala-Glu-Asn-Lys-NH] (Fmoc-AENK-NH2)
inhibition of processing of TTCF by AEP [1]: substantially inhibited
presentation of AEP-pre-processed antigen ([2]; EBV B cells, TTCF pre-processed with AEP, 60 minutes of antigen pulsing, Fig 9d): no longer inhibited; also recorded: did not block
antigen presentation by EBV-B cells ([2]; EBV-B cells from donor, 2 mg/ml peptide, Fig 9b): blocked antigen presentation by EBV-B cells very effectively
hydrolysis of the cathepsin L/B substrate, Z-Phe-Arg-NHMec [3]: had no effect
